Results: patent US12115176B2, “Methods and compositions relating to ClbP inhibition” (PRESIDENT AND FELLOWS OF HARVARD COLLEGE, priority 2021, dated 2024)
Entries after “also recorded” stand apart in the source; their conditions may differ.

Test system: E. coli NC101 with mouse fecal community
Test: ClbP inhibition in a microbial community
Format: cell-based
Conditions: E. coli NC101 plus C57BL/6J mouse fecal community, anaerobic, 1 μM 3, LC-MS
Procedure: ClbP inhibition in a microbial community. Mouse pellets were aseptically collected from cages and immediately stored at −80° C. until use. One 5 mL starter culture each of E. coli NC101 and E. coli NC101ΔclbP was started from frozen stocks in deoxygenated Brain-Heart Infusion media (BHI) inside an anaerobic chamber under a 95% N215% H2 atmosphere and incubated at 37° C. overnight. Mouse fecal pellets were defrosted in the anaerobic chamber and resuspended in BHI with 10 mL media/100 mg pellet mass. The fecal slurry was then centrifuged at 1000×g for 5 minutes to separate solids and the resulting supernatant was used as the media for all “+ community” conditions. Cultures were incubated in 500 μL volumes in triplicate in a deep-well plate under anaerobic conditions, with a 1:100 inoculum of the appropriate E. coli overnight for the “+E. coli” conditions. All samples contained a final concentration of 1% DMSO, with or without 1 μM inhibitor 3. After 20 hours at 37° C., samples were processed, and the concentration of N-myristoyl-D-asparagine quantified via LC-MS/MS as described above.

CC1(C)OB([C@@H](CC(N)=O)NC(=O)CCCc2ccccc2)OC1(C)C [Compound 3] was tested, and the “production of prodrug scaffold in a complex microbial community” value was “reduce the release of N-myristoyl-Asn; also recorded: fully suppressed production of the prodrug scaffold; also recorded: can selectively block colibactin biosynthesis; also recorded: can still effectively block colibactin production”.
